Measured values: patent publication US9353150B2, “Substituted pyrazino[1′,2′:1 ,5]pyrrolo[2,3-b]-indole-1,4-diones for cancer treatment” (Massachusetts Institute of Technology, priority 2012, dated 2016)
Read-outs that look alike come from different tables or passages of the source.

Columns and labels:
[1] = test system: U-937 (hystiocytic lymphoma); assay: 72-hour IC50 determination for non-adherent cells using MTS; format: cell-based, human
Experimental: (§1) Certain synthesized compounds were screened for their ability to induce death in two human cancer cell lines: U-937 (leukemic monocyte lymphoma) and HeLa (cervical cancer).
(§2) Cells were grown in media supplemented with fetal bovine serum (FBS) and antibiotics ([…]). Specifically, experiments were performed using the following cell lines and media compositions: U-937, HeLa, H460, and 786-O (RPMI-1640+10% FBS), and MCF7 (EMEM+10% FBS). Cells were incubated at 37° C. in a 5% CO2, 95% humidity atmosphere.
(§3) In a 96-well plate, compounds were pre-added as DMSO stocks in triplicate to achieve a final concentration of 1%. DMSO and cell-free wells served as the live and dead control, respectively. U-937 (5,000 cells/well) cells were distributed in 100 μL media to the compound-containing plate. After 72 hours, cell viability was assessed by adding 20 μL of a PMS/MTS solution (Cory, A. H.; Owen, T. C.; Barltrop, J. A.; Cory, J. G. Cancer Commun. 1991, 3, 207) to each well, allowing the dye to develop at 37° C. until the live control had processed MTS, and reading the absorbance at λ=490 nm. IC50 values were determined from three or more independent experiments using TableCurve (San Jose, Calif.).

[2] = test system: HeLa (cervical carcinoma); assay: 72-hour IC50 determination for adherent cells using sulforhodamine B (SRB); format: cell-based, human
Experimental: as §1, §2
(§4) Adherent cells (HeLa, H460, 786-O, and MCF7) were added into 96-well plates (5,000 cells/well for HeLa cell line; 2,000 cells/well for H460, 786-O, and MCF7 cell lines) in 100 μL media and were allowed to adhere for 2-3 hours. Compounds were solubilized in DMSO as 100× stocks, added directly to the cells (100 μL final volume), and tested over a range of concentrations in triplicate (1% DMSO final) on a half-log scale. Concentrations tested ranged from […] to 10 μM, depending on the potency of the compound. DMSO and cell-free wells served as the live and dead control, respectively. After 72 hours of continuous exposure, the plates were evaluated using the SRB colorimetric assay as described previously (Vichai, V.; Kirtikara, K. Nature Prot. 2006, 1, 1112). Briefly, media was removed from the plate, and cells were fixed by the addition of 100 μL cold 10% trichloroacetic acid in water. After incubating at 4° C. for an hour, the plates were washed in water and allowed to dry. Sulforhodamine B was added as a 0.057% solution in 1% acetic acid (100 μL), and the plates were incubated at room temperature for 30 minutes, washed in 1% acetic acid, and allowed to dry. The dye was solubilized by adding 10 mM Tris base solution (pH 10.5, 200 μL) and incubating at room temperature for 30 minutes. Plates were read at λ=510 nm. IC50 values were determined from three or more independent experiments using TableCurve (San Jose, Calif.).

[3] = test system: human cancer cell lines; assay: Anticancer activity in human cancer cell lines, not tied to one cell line; format: cell-based; conditions: human cancer cell lines, 72-hour exposure
Experimental: as §1
Certain provided compounds were tested in culture against a panel of three supplementary human cancer cell lines representing three additional tumor histologies (H460, lung carcinoma; 786-O, renal carcinoma; MCF-7, breast carcinoma). As shown in Table E1-2, the ETPs retain their potency across the cell lines. In some embodiments, a provided compound is active in all cell lines. In some embodiments, a provide compound can be used to selectively target certain cells and/or cancers. […] Without the intention to be limited, Applicant notes that certain cell lines could be more sensitive to provided compounds; for example, U-937 and HeLa are slightly more sensitive to the ETPs than the other three cell lines.
as §4, §3

[4] = 72-hour exposure, MTS, error is standard deviation of the mean, n ≧ 3, read-out: U-937, 72-hour IC50 (Table E1-1)
[5] = 72-hour exposure, SRB, error is standard deviation of the mean, n ≧ 3, read-out: HeLa, 72-hour IC50 (Table E1-1)
[6] = Homo sapiens, U-937, 72-hour exposure, MTS, error is standard deviation of the mean, n ≧ 3, read-out: U-937, 72-hour IC50 (Table E1-1)
[7] = Homo sapiens, HeLa, 72-hour exposure, SRB, error is standard deviation of the mean, n ≧ 3, read-out: HeLa, 72-hour IC50 (Table E1-1)
[8] = Homo sapiens, U-937, 72 h, read-out: U-937, 72-hour IC50 (Table E1-1)
[9] = Homo sapiens, HeLa, 72 h, read-out: HeLa, 72-hour IC50 (Table E1-1)

| SMILES | IC50 [1, 4] | IC50 [2, 5] | other results |
| --- | --- | --- | --- |
| CC(C)C(=O)O[C@@H]1C(=O)N2[C@H]3N(S(=O)(=O)c4ccccc4)c4ccccc4[C@@]3(c3c[nH]c4ccccc34)C[C@]2(SC(=O)C(C)C)C(=O)N1C [Compound 50] | > 1 µM | > 1 µM |  |
| CN1C(=O)[C@]23C[C@]4(c5c[nH]c6ccccc56)c5ccccc5N(S(=O)(=O)c5ccccc5)[C@@H]4N2C(=O)[C@@]1(C)SS3 [Compound 62, C3-(Indol-3′-yl) epidithiodiketopiperazines] | > 1 µM | > 1 µM | anticancer activity, in words [3]: inactive |
| CN1C(=O)[C@]2(O)C[C@]3(c4c[nH]c5ccccc45)c4ccccc4N(S(=O)(=O)c4ccccc4)[C@@H]3N2C(=O)[C@H]1O [Compound 56, C3-(Indol-3′-yl) hexacyclic Diol] | > 10 µM | > 10 µM |  |
| CN1C(=O)[C@]2(O)C[C@]3([C@]45C[C@@]6(O)C(=O)N(C)[C@](C)(O)C(=O)N6[C@H]4N(S(=O)(=O)c4ccccc4)c4ccccc45)c4ccccc4N(S(=O)(=O)c4ccccc4)[C@@H]3N2C(=O)[C@@]1(C)O [Compound 22] | > 1 µM | > 10 µM |  |
| CN1C(=O)[C@]2(O)C[C@]3([C@]45C[C@@]6(O)C(=O)N(C)[C@](C)(O[Si](C)(C)C(C)(C)C)C(=O)N6[C@H]4N(S(=O)(=O)c4ccccc4)c4ccccc45)c4ccccc4N(S(=O)(=O)c4ccccc4)[C@@H]3N2C(=O)[C@@]1(C)O[Si](C)(C)C(C)(C)C [Compound 23] | > 1 µM | > 10 µM |  |
| COCCOCS[C@H]1C(=O)N2[C@H]3N(S(=O)(=O)c4ccccc4)c4ccccc4[C@@]3(c3cn(C(=O)OC(C)(C)C)c4ccccc34)C[C@]2(SCOCCOC)C(=O)N1C [Compound 42, C3-(N-Boc-indol-3′-yl)bis(S-MEM)ether] | > 10 µM | > 10 µM |  |
| CC(C)[Si](O[C@@H]1C(=O)N2C(=C[C@]3(c4c[nH]c5ccccc45)c4ccccc4N(C(=O)C(F)(F)F)[C@H]23)C(=O)N1C)(C(C)C)C(C)C [Compound 53] |  |  | IC50 [1, 6]: > 10 µM; IC50 [2, 7]: > 10 µM |
| CC(C)[Si](O[C@@H]1C(=O)N2[C@H]3Nc4ccccc4[C@@]3(c3c[nH]c4ccccc34)C[C@@]2(O)C(=O)N1C)(C(C)C)C(C)C [Compound 58] | > 10 µM | > 10 µM |  |
| COCS[C@]12C[C@]3(c4cn(C(=O)OC(C)(C)C)c5ccccc45)c4ccccc4N(S(=O)(=O)c4ccccc4)[C@@H]3N1C(=O)CN(C)C2=O [Compound 49] | > 10 µM | > 10 µM |  |
| CN1C(=O)C23CC4(c5c[nH]c6ccccc56)c5ccccc5N(S(=O)(=O)c5ccccc5)C4N2C(=O)C1(C)SC(=S)S3 (centres unmarked) [Compound 66, C3-(Indo-3′-v)dithiepanethiones] | > 1 µM | > 1 µM | anticancer activity, in words [3]: inactive |
| CN1CC(=O)N2C(CC3(c4c[nH]c5ccccc45)c4ccccc4N(S(=O)(=O)c4ccccc4)C23)C1=O (centres unmarked) [Compound 59, C3-(indol-3′-yl)-pyrrolidinoindolne] | > 10 µM | > 10 µM |  |
| CN1C(=O)C(=O)N2C(=C[C@]3(c4c[nH]c5ccccc45)c4ccccc4N[C@H]23)C1=O [Compound 52, (+)-Gliocladin C] |  |  | IC50 [1, 8]: > 10 µM; IC50 [2, 9]: > 10 µM |
| CN1C(=O)[C@@]2(S)C[C@]3(c4c[nH]c5ccccc45)c4ccccc4N(S(=O)(=O)c4ccccc4)[C@@H]3N2C(=O)[C@H]1O [Compound 48, C3-(Indol-3′-yl) C11-thiohemiaminal] |  |  | IC50 [1, 6]: > 10 µM; IC50 [2, 7]: > 10 µM |
| CS[C@H]1C(=O)N2[C@H]3N(S(=O)(=O)c4ccccc4)c4ccccc4[C@@]3(c3c[nH]c4ccccc34)C[C@]2(SC)C(=O)N1C [Compound 39] | > 10 µM | > 10 µM |  |
| CCCC12CC34SSC(C)(C(=O)N3C1N(S(=O)(=O)c1ccccc1)c1ccccc12)N(C)C4=O (stereo not drawn) [Compound 61, β-C3-Propyl epidithiodiketopiperazine] |  |  | IC50 [1, 8]: > 1 µM; IC50 [2, 9]: > 1 µM; anticancer activity, in words [3]: substantially lower potencies |
| CCCC12CC34SSC(C)(C(=O)N3C1N(S(=O)(=O)c1ccccc1)c1ccccc12)N(C)C4=O (stereo not drawn) [Compound 63, α-C3-Propyl epidithiodiketopiperazine] |  |  | IC50 ([1]; read-out: U-937, 72-hour IC50 (Table E1-1), 72-hour exposure, MTS, error is standard deviation of the mean, n ≧ 3): > 1 µM; IC50 ([2]; read-out: HeLa, 72-hour IC50 (Table E1-1), 72-hour exposure, SRB, error is standard deviation of the mean, n ≧ 3): > 1 µM; anticancer activity, in words [3]: inactive |
| CN1CC(=O)N2[C@@H](C[C@]3(Br)c4ccccc4N(S(=O)(=O)c4ccccc4)[C@H]23)C1=O [Compound 54] |  |  | IC50 [1, 6]: > 10 µM; IC50 [2, 7]: > 10 µM |
| CC(C)[Si](O[C@@H]1C(=O)N2[C@H]3N(S(=O)(=O)c4ccccc4)c4ccccc4[C@@]3(c3c[nH]c4ccccc34)C[C@@]2(O)C(=O)N1C)(C(C)C)C(C)C [Compound 57] | > 10 µM | > 10 µM |  |
| COCCOCS[C@H]1C(=O)N2[C@H]3N(S(=O)(=O)c4ccccc4)c4ccccc4[C@@]3(c3cn(C(=O)OC(C)(C)C)c4ccccc34)C[C@]2(S)C(=O)N1C [Compound 47, C3-(N-Boc-indol-3′-yl) S15-MEM ether] | > 10 µM | > 10 µM |  |
| CC(=O)OC[C@@]1(OC(=O)C(C)C)C(=O)N2[C@H]3N(S(=O)(=O)c4ccccc4)c4ccccc4[C@@]3([C@]34C[C@]5(SSSC(c6ccccc6)(c6ccccc6)c6ccccc6)C(=O)N(C)[C@](COC(C)=O)(OC(=O)C(C)C)C(=O)N5[C@H]3N(S(=O)(=O)c3ccccc3)c3ccccc34)C[C@]2(SSSC(c2ccccc2)(c2ccccc2)c2ccccc2)C(=O)N1C [Compound 19, Dimeric bis(triphenylmethanetrisulfide)] | > 10 µM | > 10 µM |  |
| C[C@H]1C(=O)N2[C@@H](C[C@]3([C@]45C[C@H]6C(=O)N(C)[C@@H](C)C(=O)N6[C@H]4N(S(=O)(=O)c4ccccc4)c4ccccc45)c4ccccc4N(S(=O)(=O)c4ccccc4)[C@H]23)C(=O)N1C [Compound 21] | > 1 µM | > 10 µM |  |
| CS[C@H]1C(=O)N2[C@H]3Nc4ccccc4[C@@]3(c3c[nH]c4ccccc34)C[C@]2(SC)C(=O)N1C [Compound 7, (+)-gliocladin B] | > 10 µM | > 10 µM |  |
| CN1C(=O)[C@@]23C[C@]4(c5cn(C(=O)OC(C)(C)C)c6ccccc56)c5ccccc5N(S(=O)(=O)c5ccccc5)[C@@H]4N2C(=O)[C@@H]1SS3 [Compound 24, C3-(N-Boc-indol-3′-yl) epidithiodiketopiperazine] |  |  | IC50 ([1]; Homo sapiens, U-937, 72 h, read-out: IC50 (U-937)): 0.0028 to 0.0148 µM; IC50 [1, 8]: 0.0059 ± 0.0014 µM; IC50 [2, 9]: 0.075 ± 0.01 µM; IC50 ([2]; Homo sapiens, HeLa, 72 h, read-out: IC50 (HeLa)): 0.022 to 0.075 µM |
| CC(=O)OC[C@@]1(OC(=O)C(C)C)C(=O)N2[C@H]3Nc4ccccc4[C@@]3([C@]34C[C@]5(SSSC(c6ccccc6)(c6ccccc6)c6ccccc6)C(=O)N(C)[C@](COC(C)=O)(OC(=O)C(C)C)C(=O)N5[C@H]3Nc3ccccc34)C[C@]2(SSSC(c2ccccc2)(c2ccccc2)c2ccccc2)C(=O)N1C [Compound 20] | > 10 µM | > 10 µM |  |
| CC(C)C(=O)O[C@@H]1C(=O)N2[C@H]3Nc4ccccc4[C@@]3(c3c[nH]c4ccccc34)C[C@]2(SC(=O)C(C)C)C(=O)N1C [Compound 51] | > 10 µM | > 1 µM |  |
